The text below walks through data of patent US7786155B2, “Organic compounds” (Novartis AG, priority 2007, dated 2010).

The first assay deals with T1, recombinant human NPY Y2 receptors (Homo sapiens, UniProt P49146).
T1 construct: expressed in transfected cells; host or cells: CHO-C4 cells (membrane preparation)
T1 sequence (P49146 1-381): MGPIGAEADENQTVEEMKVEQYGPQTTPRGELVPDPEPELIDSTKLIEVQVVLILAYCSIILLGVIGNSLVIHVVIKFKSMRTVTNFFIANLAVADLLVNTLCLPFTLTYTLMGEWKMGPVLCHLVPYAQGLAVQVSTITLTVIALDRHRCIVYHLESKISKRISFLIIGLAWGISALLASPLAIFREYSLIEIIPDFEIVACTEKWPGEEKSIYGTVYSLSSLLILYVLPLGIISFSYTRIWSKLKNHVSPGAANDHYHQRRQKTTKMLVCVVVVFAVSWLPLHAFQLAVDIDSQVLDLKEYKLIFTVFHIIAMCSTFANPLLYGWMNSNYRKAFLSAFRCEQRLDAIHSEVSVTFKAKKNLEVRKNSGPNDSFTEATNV
As to the kind of experiment: Scintillation proximity [35S]GTPγS binding assay (inhibition of 0.5 nM NPY-stimulated [35S]GTPγS binding). The note with it: 10 μM compound, membranes from CHO-C4 cells expressing recombinant human NPY Y2 receptors. The format is biochemical. The protocol: Preparation of Membranes: CHO-C4 cells expressing recombinant human NPY Y2 receptors were used to prepare membranes for the GTPγS assay. Cells were grown to 80-95% confluency on 15-cm (225 cm^2) tissue culture plates. After aspiration of the culture medium, cells were washed twice with 18 ml ice-cold phosphate-buffered saline (PBS), scraped off and suspended in 3 ml ice-cold PBS in pre-cooled centrifuge tubes. The dishes were rinsed with 2 ml ice-old PBS per dish and the washings were combined with the PBS cell suspension from above. Cells pooled from 5-7 dishes were centrifuged for 5 min at 10,000 rpm (12,000 g) in a Sorvall RC5B centrifuge using an SS34 rotor at […]. The cell pellet was resuspended in 5 ml ice-cold buffer (20 mM HEPES, 10 mM EDTA; pH 7.4) by vortexing (2-5 sec), homogenized using a Polytron (step 4 for 20-30 sec), and ice-cold buffer added to 25 ml. The suspension was centrifuged again for 20 min at 18,000 rpm (39,000 g) at 4° C. and the pellet resuspended in 5 ml ice-cold buffer (20 mM HEPES, 0.1 mM EDTA; pH 7.4) by vortexing (2-5 sec), homogenized with a Polytron (step 4 for 10 sec), and ice-cold buffer added to 25 ml. The suspension was centrifuged a third time for 20 min at 18,000 rpm (39,000 g) at 4° C. The pellet was resuspend in 1 ml ice-cold buffer (20 mM Hepes, 0.1 mM EDTA; pH 7.4) by vortexing (5-8 sec). Two to five resuspended pellets were combined and homogenized using a Polytron (step 4 for 15-25 sec). A small aliquot (20-50 μl) was removed for protein determination by the Coomassie Plus Protein Assay Reagent (Pierce) using BSA as standard. The membrane suspension was aliquoted in precooled (on dry ice) Eppendorf tubes (0.25-1 ml/tube affording approximately 0.5-2 mg of membrane protein/tube). The pellets were frozen and stored at −80° C.
Scintillation proximity [^35S]GTPγS binding assay: Frozen membranes from CHO-C4 cells expressing recombinant human NPY Y2 receptors (2 mg for four 96-well plates) were thawed on ice. Thawed membranes were pipetted into 10 ml of assay buffer (20 mM HEPES, 10 mM MgCl2, 100 mM NaCl, pH 7.4) and homogenized briefly using a Polytron. The final assay mixture was prepared in 96-well microtiter plates (Isoplate Wallac, Perkin Elmer). The composition of the assay mixtures in a final volume of 250 μl per well was as follows: 20 mM HEPES, 10 mM MgCl2, 100 mM NaCl, pH 7.4, 30 μM GDP, 1 mg/ml BSA (added fresh), 5 μg membrane protein, 1.5 mg Wheatgerm agglutinin SPA beads (Amersham), 0.45 nM [^35S]GTPγS (Amersham, SJ1308, 1000 Ci/mmol, stabilized solution), and the test compounds (agonists and/or antagonists) at the appropriate concentrations. The samples were incubated at room temperature for 90 min by shaking, after which the SPA beads were sedimented by centrifugation in an Eppendorf 5804 centrifuge at 2700 rpm for 10 min at room temperature. After 60 min the plates were counted in a TopCount (Canberra). Basal [^35S]GTPγS binding was measured in the absence of agonist (NPY). Non-specific binding was measured in the presence of excess (10 μM) unlabelled GTPγS (Sigma). Nonspecific binding never exceeded 10% of basal binding and was thus not subtracted from the experimental data. Antagonists were tested for the inhibition of 0.5 nM NPY-stimulated [^35S]GTPγS binding. Antagonist inhibition curves were analyzed by non-linear regression using GraphPad Prism software (Version 4.0, GraphPad Software Inc., CA, USA).
Antagonistic activity of compounds of the present invention was examined by the Scintillation proximity [^35S]GTPγS binding assay as described above (inhibition of 0.5 nM NPY-stimulated [^35S]GTPγS binding). The table below represents percentages of inhibition at a concentration of 10 μM.
In general terms: SPA uses beads or plates that emit light when radiolabelled molecules are held near them.
As to `CCCC1(c2ccc(F)cc2)N=C(C)N(CC(=O)c2ccc(N(C)C(=O)N(C)c3c(C)noc3C)cc2F)C1=O` (racemic) [Compound 18], the “[%] inhibiton at 10 μM” value is reported as 70%.
The same measure, in the same setting: the same measure for `CCCC1(c2ccccc2)N=C(C)N(CC(=O)c2ccc(NC(=O)C(CC)CC)cc2)C1=O` (single isomer, unassigned; (+)) [Compound 25]: 92%; for `CCCC1(c2ccc(F)cc2)N=C(C)N(CC(=O)c2ccc(NC(=O)C3CCOC3)cc2F)C1=O` (stereo not shown) [Compound 14, Tetrahydro-furan-3-carboxylic acid (34-fluoro-4-{2-[4-(4-fluoro-phenyl)-2-methyl-5-oxo-propyl-4,5-dihydro-imidazol-1-yl]-acetyl}-phenyl)-amide]: 39%.
With `CCCC1(c2ccc(F)cc2)N=C(C)N(CC(=O)c2ccc(NC(=O)Cc3c(C)noc3C)cc2F)C1=O` (single isomer, unassigned; (+)) [Compound 36, (+)-2-(3,5-Dimethyl-isoxazol-4-yl)-N-(3-fluoro-4-{2-[4-(4-fluoro-phenyl)-2-methyl-5-oxo-4-propyl-4,5-dihydro-imidazol-1-yl]-acetyl}-phenyl)-acetamide], the “[%] inhibiton at 10 μM” value came to 75%.
`CCCC1(c2ccc(F)cc2)N=C(C)N(CC(=O)c2ccc(NC(=O)Cc3c(C)noc3C)cc2F)C1=O` (racemic) [Compound 17]: the “[%] inhibiton at 10 μM” value came out at 87%.

Staying with this assay, now noted: 10 μM compound, membranes from CHO-C4 cells expressing recombinant human NPY Y2 receptors, read-out: [%] inhibiton at 10 μM.
On to `CC1=NC(c2ccccc2)(c2ccccc2)C(=O)N1CC(=O)c1ccc(NC(=O)Cc2ccccc2C)cc1` [Compound 22, N-{4-[2-(2-Methyl-5-oxo-4,4-diphenyl-4,5-dihydro-imidazol-1-yl)-acetyl]-phenyl}-2-o-tolyl-acetamide], for which the inhibition at 10 µM is 55%.
Consider `CCCC1(c2ccc(F)cc2)N=C(C)N(CC(=O)c2ccc(NC(=O)Nc3c(C)noc3C)cc2F)C1=O` (racemic) [Compound 11, (+/−)-1-(3,5-Dimethyl-isoxazol-4-yl)-3-(3-fluoro-4-{2-[4-(4-fluoro-phenyl)-2-methyl-5-oxo-4-propyl-4,5-dihydro-imidazol-1-yl]acetyl}-phenyl)-urea], for which the inhibition at 10 µM came to 96%.
As for `CCC(CC)C(=O)Nc1ccc(C(=O)CN2C(=O)C(c3ccccc3)(c3ccccc3)N=C2C)c(F)c1` [Compound 33, 2-Ethyl-N-{3-fluoro-4-[2-(2-methyl-5-oxo-4,4-diphenyl-4,5-dihydro-imidazol-1-yl)-acetyl]-phenyl}-butyramide], the inhibition at 10 µM amounted to 60%.
Still for that read-out and setting: the same measure for `CC1=NC(c2ccccc2)(c2ccccc2)C(=O)N1CC(=O)c1ccc(C(=O)NC(C)C(C)C)cc1` (racemic) [Compound 1, (+/−)-N-(1,2-Dimethyl-propyl)-4-[2-(2-methyl-5-oxo-4,4-diphenyl-4,5-dihydro-imidazol-1-yl)-acetyl]-benzamide]: 34%.
Same read-out and setting: the same measure for `CCCC1(c2ccccc2)N=C(C)N(CC(=O)c2ccc(NC(=O)Nc3c(C)noc3C)cc2F)C1=O` (racemic) [Compound 10, (+/−)-1-(3,5-Dimethyl-isoxazol-4-yl)-3-{3-fluoro-4-[2-(2-methyl-5-oxo-4-phenyl-4-propyl-4,5-dihydro-imidazol-1-yl)-acetyl]-phenyl}-urea]: 97%; for `CCCC1(c2ccc(F)cc2)N=C(C)N(CC(=O)c2ccc(NC(=O)Cc3c(C)noc3C)cc2F)C1=O` (single isomer, unassigned; (-)) [Compound 35, (−)-2-(3,5-Dimethyl-isoxazol-4-yl)-N-(3-fluoro-4-{2-[4-(4-fluoro-phenyl)-2-methyl-5-oxo-4-propyl-4,5-dihydro-imidazol-1-yl]-acetyl}-phenyl)acetamide]: 92%.
Same read-out and setting: to `CC1=NC(c2ccccc2)(c2ccccc2)C(=O)N1CC(=O)c1ccc(NC(=O)Nc2c(C)noc2C)cc1` [Compound 27, 1-(3,5-Dimethyl-isoxazol-4-yl)-3-{4-[2-(2-methyl-5-oxo-4,4-diphenyl-4,5-dihydro-imidazol-1-yl)-acetyl]-phenyl}-urea] belongs 100%.

Another assay relates to rats.
Assay: not given
The note with it: icv administration (Thorsell et al. Neurosci. Lett. 2002); cited from earlier work.
With `N=C(N)NCCC[C@H](NC(=O)CC1(CC(=O)N2CCN(C3c4ccccc4NC(=O)c4ccccc43)CC2)CCCC1)C(=O)NCCn1c(=O)n(-c2ccccc2)n(-c2ccccc2)c1=O` (stereo partly shown) [BIIE0246], the ethanol self-administration result is “dose dependently reduced ethanol self-administration”.
